Source: ChEMBL document CHEMBL1201862, “PubChem BioAssay data set” (2004)
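The compound was tested at five concentrations on cells cultured in 96-well plates, with a 48-hour exposure period. Abbreviation: GI50, concentration required for 50% inhibition of growth.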 Activity calls are given as the source filed them. Cut-off read from the data, not from the text of the source: active = GI50 up to about 1.1 µM and inactive = higher.

Columns and labels:
Test in all cases: growth of human tumour cells (NCI), 48 h
NCI-H23 = test system: NCI-H23
SNB-19 = test system: SNB-19
A549 = test system: A549
NCI-H226 = test system: NCI-H226
K562 = test system: K562
OVCAR-5 = test system: OVCAR-5
COLO 205 = test system: COLO 205
CAKI-1 = test system: CAKI-1
SK-OV-3 = test system: SK-OV-3
SNB-75 = test system: SNB-75
DMS-273 = test system: DMS-273
UACC-62 = test system: UACC-62
RXF 393 = test system: RXF 393
OVCAR-3 = test system: OVCAR-3
SK-MEL-5 = test system: SK-MEL-5
DMS-114 = test system: DMS-114
A498 = test system: A498
HT-29 = test system: HT-29
RPMI-8226 = test system: RPMI-8226
U-251 = test system: U-251
HCT-116 = test system: HCT-116
SK-MEL-2 = test system: SK-MEL-2
MOLT-4 = test system: MOLT-4
CCRF-CEM = test system: CCRF-CEM
HOP-18 = test system: HOP-18
LOX IMVI = test system: LOX IMVI
SF-539 = test system: SF-539
HOP-62 = test system: HOP-62
SK-MEL-28 = test system: SK-MEL-28
HOP-92 = test system: HOP-92
NCI-H460 = test system: NCI-H460
ACHN = test system: ACHN
SR = test system: SR
SF-295 = test system: SF-295
IGROV-1 = test system: IGROV-1
UACC-257 = test system: UACC-257
SW-620 = test system: SW-620
SN12C = test system: SN12C
TK-10 = test system: TK-10
DLD-1 = test system: DLD-1
786-0 = test system: 786-0
KM-20L2 = test system: KM-20L2
M14 = test system: M14
EKVX = test system: EKVX
KM12 = test system: KM12
HL-60 = test system: HL-60
M19-MEL = test system: M19-MEL
UO-31 = test system: UO-31
SF-268 = test system: SF-268
OVCAR-4 = test system: OVCAR-4
HCC 2998 = test system: HCC 2998
OVCAR-8 = test system: OVCAR-8
Malme-3M = test system: Malme-3M
LXFL 529 = test system: LXFL 529
NCI-H522 = test system: NCI-H522
SNB-78 = test system: SNB-78
HCT-15 = test system: HCT-15

Measured: GI50

Oc1ccc(Br)cc1/C=N/c1ccc(Oc2ccc(/N=C/c3cc(Br)ccc3O)cc2)cc1
inactive: NCI-H23 > 19.6 µM | SNB-19 > 19.6 µM | A549 > 19.6 µM | NCI-H226 > 19.6 µM | K562 > 19.6 µM | OVCAR-5 > 19.6 µM | COLO 205 > 19.6 µM | CAKI-1 > 19.6 µM | SK-OV-3 > 19.6 µM | SNB-75 > 19.6 µM | DMS-273 > 19.6 µM | UACC-62 > 19.6 µM | RXF 393 > 19.6 µM | OVCAR-3 > 19.6 µM | SK-MEL-5 > 19.6 µM | DMS-114 > 19.6 µM | A498 > 19.6 µM | HT-29 > 19.6 µM | RPMI-8226 > 19.6 µM | U-251 > 19.6 µM | HCT-116 > 19.6 µM | SK-MEL-2 > 19.6 µM | MOLT-4 > 19.6 µM | CCRF-CEM > 19.6 µM | HOP-18 > 19.6 µM | LOX IMVI > 19.6 µM | SF-539 > 19.6 µM | HOP-62 > 19.6 µM | SK-MEL-28 > 19.6 µM | HOP-92 > 19.6 µM | NCI-H460 > 19.6 µM | ACHN > 19.6 µM | SR > 19.6 µM | SF-295 > 19.6 µM | IGROV-1 > 19.6 µM | UACC-257 > 19.6 µM | SW-620 > 19.6 µM | SN12C > 19.6 µM | TK-10 > 19.6 µM | DLD-1 > 19.6 µM | 786-0 > 19.6 µM | KM-20L2 > 19.6 µM | M14 > 19.6 µM | EKVX > 19.6 µM | KM12 > 19.6 µM | HL-60 > 19.6 µM | M19-MEL > 19.6 µM | UO-31 > 19.6 µM | SF-268 > 19.6 µM | OVCAR-4 > 19.6 µM | HCC 2998 > 19.6 µM | OVCAR-8 > 19.6 µM | Malme-3M > 19.6 µM | LXFL 529 > 19.6 µM | NCI-H522 > 19.6 µM

CN(C)CCC(/C=C/c1ccccc1)=N\Nc1ccc(Cl)cc1Cl
inactive: NCI-H23 17.1 µM | SNB-19 15.5 µM | A549 15.6 µM | K562 13.1 µM | OVCAR-5 15.5 µM | COLO 205 14.6 µM | SK-OV-3 10.8 µM | SNB-75 6.1 µM | DMS-273 13.2 µM | UACC-62 9.35 µM | RXF 393 8.77 µM | OVCAR-3 14.1 µM | SK-MEL-5 13.4 µM | DMS-114 14.8 µM | A498 16.6 µM | HT-29 14.2 µM | RPMI-8226 11.7 µM | U-251 11.6 µM | HCT-116 14.5 µM | SK-MEL-2 13.3 µM | MOLT-4 10.9 µM | CCRF-CEM 10.5 µM | HOP-18 10.2 µM | SF-539 15.2 µM | HOP-62 13.6 µM | SK-MEL-28 14.3 µM | SNB-78 13.5 µM | NCI-H460 13.8 µM | ACHN 12.7 µM | SR 7.57 µM | SF-295 16.6 µM | IGROV-1 8.02 µM | UACC-257 13.9 µM | SW-620 14 µM | SN12C 11.1 µM | TK-10 14.2 µM | DLD-1 14.1 µM | 786-0 12.9 µM | M14 13.7 µM | EKVX 15 µM | KM12 15.1 µM | HL-60 2.29 µM | M19-MEL 15.6 µM | UO-31 1.73 µM | SF-268 12.2 µM | OVCAR-4 14.7 µM | OVCAR-8 16.3 µM | Malme-3M 18.5 µM | LXFL 529 10.9 µM | NCI-H522 15.3 µM
11.9 µM: HCT-15
